Consider one compound from US12578339B2, “Hexokinase 1 isoform B for use as a prognosis marker and specific target against cancer” (ISTANBUL MEDIPOL UNIVERSITESI, priority 2019, dated 2026).

Usually IC50 stands for the midpoint of a concentration-inhibition curve. The low end stands for greater potency, the high end for weaker potency.

Assay type in all cases: cell-based, Human
Test [1] concerns A549 WT cells. Description: Immunoblot analysis of apoptotic, autophagic and survival signaling. As for the experimental part: (§1) Cells were harvested and washed in PBS solution, collected, and then subjected to lysis in RIPA buffer containing proteinase inhibitor cocktail and phosphatase inhibitor cocktail (Roche). The lysates were subjected to centrifugation at 10,000 g at 4 C for 20 minutes and the supernatants removed. The total protein ([…]) was fractioned by 10% SDS-PAGE and electrophoretically transferred to Immobilon-FL PVDF membranes. The membrane was blocked with blocking buffer (Li-Cor) at room temperature for 1 hour, and then incubated with appropriate primary antibody at 4 C overnight. After washing with PBS containing 0.05% […] (PBST), the membrane was incubated with 1:2500 dilutions of appropriate secondary antibody for 2 hours at room temperature. The membrane was washed with PBST again, and Pierce ECL Western Blotting Substrate (Thermo Scientific) was used for development of immunoreactive bands. For immunoblotting of tissue samples, proteins were extracted from tumor and adjacent non-tumor lung samples collected from human NSCLC patients, snap frozen in liquid nitrogen, and stored at −80° C. Then protein lysis buffer (described above) was added to samples. Samples were vortexed, homogenized and subjected to three freeze/thaw cycles in dry ice, centrifuged and supernatant collected, and stored at −80° C. for subsequent immunoblotting.
On the technique in general: In western blotting, separated proteins are transferred to a membrane and probed.

In test [2] the test system is A549 HK1b−/− cells. The test is described as above. How it is done:
as §1

The subject of test [3] is A549 WT cells. Briefly: Cell viability assay (CellTiter-Blue). As to conditions: A549 WT control group, 48 h treatment. How it is done: (§2) Twenty-four hours following seeding (15,000 cells/well) in a 96-well plate, A549 and A549 HK1b^−/− cells (70%-80% confluent) were treated with vehicle (PBS/Saline), or cisplatin with concentrations range from 0-100 μM/ml and the cells incubated for a further 48 h. The cell viability was determined using the CellTiter-Blue assay kit (Promega) according to the manufacturer's instructions and absorbance measured at 595 nm with a microplate reader (Model 3550, Bio-Rad Laboratories, CA, USA). IC50 was defined as the concentration causing a 50% reduction in absorbance relative to the negative control. IC50 was determined by non-linear regression analysis using Graphpad Prism v8 (Graphpad Software, CA, USA).
A general note: Resazurin is reduced to fluorescent resorufin, in cell work by metabolically active cells.

Test [4] has as its system A549 HK1b−/− cells. Description: Cell viability assay (CellTiter-Blue). As to conditions: 48 h treatment. As for the experimental part: as §2
The test system of test [5] is A549 HK1b−/− cells. Description: Flow cytometric analysis of mTOR activation. As to conditions: flow cytometry, HK1b deletion plus treatment, p=0.001. For orientation: In flow cytometry, cells or beads pass a laser one at a time.
Test [6] concerns A549 HK1b−/− cells. Briefly: Seahorse XF glycolysis stress test (ECAR). The settings on record: treated A549 HK1b−/− cells. As for the experimental part:
(§3) For Seahorse XFe96 assays, cells were seeded at pre-optimized final concentration 1.5×10^4 cells/well onto Seahorse XF-96-well plates and Glycolytic rate, Glycolysis stress and Mito Stress Tests were performed following the manufacturer's specifications (Seahorse Bioscience, North Billerica, MA). Each datum was determined minimally in triplicate. OCR and ECAR were reported as absolute rates (pmoles/min for OCR and mpH/min for ECAR) or normalized against cell counts, or expressed as a percentage of the baseline oxygen consumption.

Test [7] relates to A549 HK1b−/− cells. Briefly: Flow cytometric quantification of cell death by propidium iodide staining. As to conditions: IC50 concentration (47 μM), 48 hrs.
For test [8], the system named is A549 WT cells. Description: Seahorse Mito Stress Test (OCR). As to conditions: treated A549 WT cells, p=0.02. As for the experimental part:
as §3

Test [9] deals with A549 HK1b−/− cells. Description: Seahorse Mito Stress Test (OCR). As to conditions: between treated A549 WT and A549 HK1b−/− cells. How it is done: as §3

Entries after “also recorded” stand apart in the source; their conditions may differ.

Turning to `N.N.[Cl][Pt][Cl]` [cisplatin, Cisplatin], the “cleavage of PARP and caspase 3” value with A549 WT cells [1] (immunoblot, A549 WT (and HK1b−/−) cells) is “induces cleavage of PARP and caspase 3”. In addition, in the test on A549 WT cells [1] (treated A549 WT cells), the AMPK phosphorylation entry was “diminished” and the HK1 expression entry is “significantly upregulated”. In addition, in the test on A549 HK1b−/− cells [2] (A549 HK1b−/− cells compared with A549 WT), the “induction of cleavage of PARP and caspase 3” value is “significantly higher”. Also, in the test on A549 HK1b−/− cells [2] (HK1b deletion plus treatment), the “autophagy induction (LC3II)” value is recorded as “induces greater autophagy” and the “phosphorylation of STAT3 transcription factor” value is “inhibit significantly”. Besides, the “AKT activation and its downstream target GSK3β” value in the test on A549 HK1b−/− cells [2] (HK1b silencing in combination with treatment) is reported as “totally inhibited”. Besides, the “beclin-1 and ATG13 expression levels” value in the test with A549 HK1b−/− cells [2] (both A549 WT and A549 HK1b−/− cells) is “downregulated”. The “phosphorylation of mTOR” value in the test on A549 HK1b−/− cells [2] (immunoblot, HK1b deletion plus treatment) is “inhibits significantly; also recorded: inhibits phosphorylation”. Further, in the test with A549 HK1b−/− cells [2] (treated A549 HK1b−/− cells), the AMPK phosphorylation result is “totally inhibited”, the Bcl-2 expression result is “down-regulation of Bcl-2 expression was significant” and the HK2 expression entry is on record as “reduced”. In the test on A549 WT cells [3], this compound registered an IC50 of 75 µM. Besides, the IC50 with A549 HK1b−/− cells [4] stood at 47 µM. For the same compound, the mTOR phosphorylation result with A549 HK1b−/− cells [5] is listed as “significantly inhibits”. Further, in the test on A549 HK1b−/− cells [6], the “basal glycolysis and glycolytic capacity (ECAR)” value was “further reduction of basal glycolysis and glycolytic capacity even though not significant; also recorded: further reduced ablait not significant”; the glycolytic reserve entry was “total absence”. The “cell death measured by propidium iodide (PI) staining” value with A549 HK1b−/− cells [7] is “significantly enhance cell death”. Also, the spare respiratory capacity result in the test on A549 WT cells [8] is reported as “diminished”. Also, the basal respiration rate result with A549 HK1b−/− cells [9] is on record as “no significant change”.
